Experimental data as given in patent publication US10457685B2, “[1,2,3]triazolo[4,5-D]pyrimidine derivatives with affinity for the type-2 cannabinoid receptor” (Hoffmann-La Roche Inc., priority 2016, dated 2019).

Tests used:
[1] = target: human CB1 receptor (CNR1) (Homo sapiens (Human), UniProt P21554); assay: Radioligand binding assay ([3H]-CP-55,940), membranes of HEK cells expressing human CNR1; conditions: 1.5 nM [3H]-CP-55,940, HEK cell membranes, 1 h at 30° C.
Method: (§1) Radioligand Binding Assay
(§2) The affinity of the compounds of the invention for cannabinoid receptors was determined using recommended amounts of membrane preparations (PerkinElmer) of human embryonic kidney (HEK) cells expressing the human CNR1 or CNR2 receptors in conjunction with 1.5 or 2.6 nM [3H]-CP-55,940 (Perkin Elmer) as radioligand, respectively. Binding was performed in binding buffer (50 mM Tris, 5 mM MgCl2, 2.5 mM EDTA, and 0.5% (wt/vol) fatty acid free BSA, pH 7.4 for CB1 receptor and 50 mM Tris, 5 mM MgCl2, 2.5 mM EGTA, and 0.1% (wt/vol) fatty acid free BSA, pH 7.4 for CB2 receptor) in a total volume of 0.2 mL for 1 h at 30° C. shaking. The reaction was terminated by rapid filtration through microfiltration plates coated with 0.5% polyethylenimine (UniFilter GF/B filter plate; Packard). Bound radioactivity was analyzed for Ki using nonlinear regression analysis (Activity Base, ID Business Solution, Limited), with the Kd values for [^3H]CP55,940 determined from saturation experiments.

[2] = target: human CB2 receptor (CNR2) (Homo sapiens (Human), UniProt P34972); assay: Radioligand binding assay ([3H]-CP-55,940), membranes of HEK cells expressing human CNR2; conditions: 2.6 nM [3H]-CP-55,940, HEK cell membranes, 1 h at 30° C.
Method: as §1, §2

Chain of human CB1 receptor (CNR1) (P21554 whole entry): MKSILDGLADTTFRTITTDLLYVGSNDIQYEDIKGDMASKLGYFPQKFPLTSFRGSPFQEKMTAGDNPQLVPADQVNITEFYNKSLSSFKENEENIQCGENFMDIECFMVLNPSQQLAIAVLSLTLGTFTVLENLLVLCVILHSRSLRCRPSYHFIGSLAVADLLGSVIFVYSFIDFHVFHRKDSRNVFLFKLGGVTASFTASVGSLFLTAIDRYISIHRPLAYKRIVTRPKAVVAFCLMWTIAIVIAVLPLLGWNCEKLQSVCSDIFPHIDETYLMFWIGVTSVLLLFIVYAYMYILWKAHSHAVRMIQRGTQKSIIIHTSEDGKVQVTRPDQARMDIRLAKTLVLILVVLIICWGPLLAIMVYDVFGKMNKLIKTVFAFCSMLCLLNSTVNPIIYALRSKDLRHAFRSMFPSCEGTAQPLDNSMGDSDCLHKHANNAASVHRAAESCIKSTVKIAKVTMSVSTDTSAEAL
Chain of human CB2 receptor (CNR2) (P34972 whole entry): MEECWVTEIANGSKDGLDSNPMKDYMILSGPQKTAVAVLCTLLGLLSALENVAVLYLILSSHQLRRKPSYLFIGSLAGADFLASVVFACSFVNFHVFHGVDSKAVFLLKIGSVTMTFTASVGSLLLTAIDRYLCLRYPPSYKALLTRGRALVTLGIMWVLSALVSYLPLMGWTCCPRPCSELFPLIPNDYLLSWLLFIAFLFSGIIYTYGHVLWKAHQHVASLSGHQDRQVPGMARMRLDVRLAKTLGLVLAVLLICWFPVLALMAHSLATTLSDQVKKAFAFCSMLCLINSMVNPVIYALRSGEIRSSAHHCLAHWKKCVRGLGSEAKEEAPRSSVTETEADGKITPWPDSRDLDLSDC

| SMILES | Ki [1] [nM] | Ki [2] [nM] |
| --- | --- | --- |
| CC(C)(C)c1nc(N2CC[C@H](O)C2)c2nnn(Cc3ccccc3CN=C=S)c2n1 [Example 5, (3S)-1-(5-tert-Butyl-3-{[2-(isothiocyanatomethyl)phenyl]methyl}-3H-[1,2,3]triazolo[4,5-d]pyrimidin-7-yl)pyrrolidin-3-ol] | > 10000 | 91 |
| CC(C)(C)c1nc(N2CC[C@H](S)C2)c2nnn(Cc3ccccc3Cl)c2n1 (single isomer, unassigned) [Example 12] | 2810 | 2500 |
| FC1(F)CCN(c2nc(C(F)(F)c3ccccc3)nc3c2nnn3Cc2ccccc2CCSSc2ccccn2)C1 [Example 27, 5-[Difluoro(phenyl)methyl]-7-(3,3-difluoropyrrolidin-1-yl)-3-[[2-[2-(pyridin-2-yldisulfanyl)ethyl]phenyl]methyl]triazolo[4,5-d]pyrimidine] | 3040 | 262 |
| Cc1nonc1Cn1nnc2c(N3CCC(N=C=S)C3)nc(C(C)(C)C)nc21 (centres unmarked) [Example 16, 5-tert-Butyl-7-(3-isothiocyanatopyrrolidin-1-yl)-3-[(4-methyl-1,2,5-oxadiazol-3-yl)methyl]-3H-[1,2,3]triazolo[4,5-d]pyrimidine] | > 10000 | 426 |
| CC(C)(C)c1nc(N2CCC(F)(F)C2)c2nnn(Cc3ccccc3CSSCCO)c2n1 [Example 25, 2-[[2-[[5-tert-Butyl-7-(3,3-difluoropyrrolidin-1-yl)triazolo[4,5-d]pyrimidin-3-yl]methyl]phenyl]methyldisulfanyl]ethanol] | 211 | 9 |
| CC(C)(C)c1nc(N2CC[C@H](O)C2)c2nnn(Cc3ccccc3CS(=O)(=O)F)c2n1 [Example 3, [2-({5-tert-Butyl-7-[(3S)-3-hydroxypyrrolidin-1-yl]-3H-[1,2,3]1 triazolo[4,5-d]pyrimidin-3-yl}methyl)phenyl]methanesulfonyl fluoride] | > 10000 | 283 |
| FC(F)(c1ccccc1)c1nc(N2CCC(N=C=S)C2)c2nnn(Cc3ccccc3Cl)c2n1 (centres unmarked) [Example 22, 3-[(2-Chlorophenyl)methyl]-5-[difluoro(phenyl)methyl]-7-(3-isothiocyanatopyrrolidin-1-yl)-3H-[1,2,3]triazolo[4,5-d]pyrimidine] | 6440 | 1240 |
| CC(C)(C)c1nc(N2CCC(F)(F)C2)c2nnn(Cc3ccccc3S(=O)(=O)F)c2n1 [Example 7, 2-{[5-tert-Butyl-7-(3,3-difluoropyrrolidin-1-yl)-3H-[1,2,3]triazolo[4,5-d]pyrimidin-3-yl]methyl}benzene-1-sulfonyl fluoride] | 931 | 6 |
| CC(C)(C)c1nc(N2CCC(F)(F)C2)c2nnn(Cc3ccccc3CCSSCCO)c2n1 [Example 29, 2-[2-[2-[[5-tert-Butyl-7-(3,3-difluoropyrrolidin-1-yl)triazolo[4,5-d]pyrimidin-3-yl]methyl]phenyl]ethyldisulfanyl]ethanol] | 205 | 6 |
| CC(C)(C)c1nc(N2CCC(N=[N+]=[N-])C2)c2nnn(Cc3ccccc3Cl)c2n1 (centres unmarked) [Example 17, 7-(3-Azidopyrrolidin-1-yl)-5-tert-butyl-3-[(2-chlorophenyl)methyl]-3H-[1,2,3]triazolo[4,5-d]pyrimidine] | 2290 | 210 |
| CC(C)(C)c1nc(N2CC[C@@H](S)C2)c2nnn(Cc3ccccc3Cl)c2n1 (single isomer, unassigned) [Example 13] | > 10000 | 1560 |
| CC(C)(C)c1nc(N2CCC(F)(F)C2)c2nnn(Cc3ccccc3CCS(=O)(=O)n3nnc4ccccc43)c2n1 [Example 30, 3-[[2-[2-(Benzotriazol-1-ylsulfonyl)ethyl]phenyl]methyl]-5-tert-butyl-7-(3,3-difluoropyrrolidin-1-yl)triazolo[4,5-d]pyrimidine] | > 10000 | 246 |
| O=S(=O)(F)c1ccccc1Cn1nnc2c(N3CCC(F)(F)C3)nc(C(F)(F)c3ccccc3)nc21 [Example 26, 2-[[5-[Difluoro(phenyl)methyl]-7-(3,3-difluoropyrrolidin-1-yl)triazolo[4,5-d]pyrimidin-3-yl]methyl]benzenesulfonyl fluoride] | > 10000 | 630 |
| [N-]=[N+]=NC1CCN(c2nc(C(F)(F)c3ccccc3)nc3c2nnn3Cc2ccccc2Cl)C1 (centres unmarked) [Example 21, 7-(3-Azidopyrrolidin-1-yl)-3-[(2-chlorophenyl)methyl]-5-[difluoro(phenyl)methyl]-3H-[1,2,3]triazolo[4,5-d]pyrimidine] | 2450 | 729 |
| CC(C)(C)c1nc(N2CCC(S)C2)c2nnn(Cc3ccccc3Cl)c2n1 (centres unmarked) [Example 8, 1-{5-tert-Butyl-3-[(2-chlorophenyl)methyl]-3H-[1,2,3]triazolo[4,5-d]pyrimidin-7-yl}pyrrolidine-3-thiol] | 1470 | 85 |
| C#Cc1cccc(S(=O)(=O)F)c1Cn1nnc2c(N3CCC(F)(F)C3)nc(C(C)(C)C)nc21 [Example 38, 2-[[5-tert-Butyl-7-(3,3-difluoropyrrolidin-1-yl)triazolo[4,5-d]pyrimidin-3-yl]methyl]-3-ethynylbenzenesulfonyl fluoride] | 311 | 1 |
| NCCSSCCc1ccccc1Cn1nnc2c(N3CCC(F)(F)C3)nc(C(F)(F)c3ccccc3)nc21 [Example 34, 2-[2-[2-[[5-[Difluoro(phenyl)methyl]-7-(3,3-difluoropyrrolidin-1-yl)triazolo[4,5-d]pyrimidin-3-yl]methyl]phenyl]ethyldisulfanyl]ethanamine] | 230 | 177 |
| CC(C)(C)c1nc(N2CCC(F)(F)C2)c2nnn(Cc3ccccc3CCSSCC(O)CO)c2n1 (centres unmarked) [Example 35, 3-[2-[2-[[5-tert-Butyl-7-(3,3-difluoropyrrolidin-1-yl)triazolo[4,5-d]pyrimidin-3-yl]methyl]phenyl]ethyldisulfanyl]propane-1,2-diol] | 135 | 5 |
| CC(C)(C)c1nc(N2CC[C@H](O)C2)c2nnn(Cc3ccccc3S(=O)(=O)F)c2n1 [Example 1, 2-[[5-tert-Butyl-7-[(3S)-3-hydroxypyrrolidin-1-yl]triazolo[4,5-d]pyrimidin-3-yl]methyl]benzenesulfonyl fluoride] | > 10000 | 16 |
| Cc1nonc1Cn1nnc2c(N3CCC(N=C=S)C3)nc(C(F)(F)c3ccccc3)nc21 (centres unmarked) [Example 23, 5-[Difluoro(phenyl)methyl]-7-(3-isothiocyanatopyrrolidin-1-yl)-3-[(4-methyl-1,2,5-oxadiazol-3-yl)methyl]-3H-[1,2,3]triazolo[4,5-d]pyrimidine] | 1450 | 1460 |
| Cc1nonc1Cn1nnc2c(N3CCC(N=[N+]=[N-])C3)nc(C(C)(C)C)nc21 (centres unmarked) [Example 14, 7-(3-Azidopyrrolidin-1-yl)-5-tert-butyl-3-[(4-methyl-1,2,5-oxadiazol-3-yl)methyl]-3H-[1,2,3]triazolo[4,5-d]pyrimidine] | > 10000 | 137 |
| CC(C)(C)c1nc(N2CC(S)C2)c2nnn(Cc3ccccc3Cl)c2n1 [Example 9, 1-{5-tert-Butyl-3-[(2-chlorophenyl)methyl]-3H-[1,2,3]triazolo[4,5-d]pyrimidin-7-yl}azetidine-3-thiol] | > 10000 | 383 |
| Cc1nonc1Cn1nnc2c(N3CCC(N=[N+]=[N-])C3)nc(C(F)(F)c3ccccc3)nc21 (centres unmarked) [Example 20, 7-(3-Azidopyrrolidin-1-yl)-5-[difluoro(phenyl)methyl]-3-[(4-methyl-1,2,5-oxadiazol-3-yl)methyl]-3H-[1,2,3]triazolo[4,5-d]pyrimidine] | > 10000 | 1300 |
| CC(C)(C)c1nc(N2CCC(F)(F)C2)c2nnn(Cc3ccccc3CN=C=S)c2n1 [Example 4, 5-tert-Butyl-7-(3,3-difluoropyrrolidin-1-yl)-3-{[2-(isothiocyanatomethyl)phenyl]methyl}-3H-[1,2,3]triazolo[4,5-d]pyrimidine] | 3830 | 88 |
| CC(C)(C)c1nc(N2CCC(F)(F)C2)c2nnn(Cc3ccccc3N=C=S)c2n1 [Example 6, 5-tert-Butyl-7-(3,3-difluoropyrrolidin-1-yl)-3-[(2-isothiocyanatophenyl)methyl]-3H-[1,2,3]triazolo[4,5-d]pyrimidine] | 5360 | 300 |
| O=S(=O)(F)c1ccccc1Cn1nnc2c(N3CC[C@H](O)C3)nc(C(F)(F)c3ccccc3)nc21 [Example 24, 2-[[5-[Difluoro(phenyl)methyl]-7-[(3S)-3-hydroxypyrrolidin-1-yl]triazolo[4,5-d]pyrimidin-3-yl]methyl]benzenesulfonyl fluoride] | 3290 | 1130 |
| CSSC1CCN(c2nc(C(F)(F)c3ccccc3)nc3c2nnn3Cc2ccccc2Cl)C1 (centres unmarked) [Example 19, 3-[(2-Chlorophenyl)methyl]-5-[difluoro(phenyl)methyl]-7-[3-(methyldisulfanyl)pyrrolidin-1-yl]-3H-[1,2,3]triazolo[4,5-d]pyrimidine] | > 10000 | 1370 |
| OCCSSCCc1ccccc1Cn1nnc2c(N3CCC(F)(F)C3)nc(C(F)(F)c3ccccc3)nc21 [Example 28, 2-[2-[2-[[5-[Difluoro(phenyl)methyl]-7-(3,3-difluoropyrrolidin-1-yl)triazolo[4,5-d]pyrimidin-3-yl]methyl]phenyl]ethyldisulfanyl]ethanol] | 1080 | 138 |
